Experimental data taken from patent publication US11576922B2, “CD73 inhibitors” (ORIC Pharmaceuticals, Inc., priority 2017, dated 2023).
pIC50: −log10 of the molar value. Values joined by “and” are separate entries in the source; they are usually repeats but may differ in a detail not shown here. Equal values may be shown once.

Molecular target: T1, CD73 (Homo sapiens, UniProt P21589)
T1 sequence (P21589 27-549): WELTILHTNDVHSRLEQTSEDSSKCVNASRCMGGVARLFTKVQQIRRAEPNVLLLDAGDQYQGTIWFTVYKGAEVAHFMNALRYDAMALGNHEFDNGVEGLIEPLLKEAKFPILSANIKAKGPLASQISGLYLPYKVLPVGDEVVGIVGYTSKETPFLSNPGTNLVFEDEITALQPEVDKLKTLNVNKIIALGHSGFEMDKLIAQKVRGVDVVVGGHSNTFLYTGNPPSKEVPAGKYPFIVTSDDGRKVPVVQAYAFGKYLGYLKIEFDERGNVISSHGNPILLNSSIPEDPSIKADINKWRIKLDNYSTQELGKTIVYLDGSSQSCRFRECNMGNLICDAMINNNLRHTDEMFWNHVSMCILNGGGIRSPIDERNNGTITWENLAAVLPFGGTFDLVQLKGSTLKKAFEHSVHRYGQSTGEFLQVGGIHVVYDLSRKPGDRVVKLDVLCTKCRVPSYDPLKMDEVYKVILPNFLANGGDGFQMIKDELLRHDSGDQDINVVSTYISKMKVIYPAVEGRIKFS
Test: Example A1: Biochemical Assay (CD73 inhibition, Malachite Green detection of AMP hydrolysis)
Details: Biochemical IC50, CD73 0.3208 nM, AMP 15 μM, Tris-HCl pH 7.4, Malachite Green, absorbance 620 nm
Description: Example A1: Biochemical Assay
Assay Reaction Conditions
• Assay Volume: 70 μl • Reaction Volume: 50 μl • CD73: 0.3208 nM • AMP: 15 μM • Assay Buffer: 2 5 mM Tris-HCL, pH 7.4, 0.01% Brij-35, 0.01% BSA, 5 mM MgCl2 Assay Procedure:
Made dose titration of testing compounds in assay buffer, 10 points ½ log titrations in duplicates starting at 100 μM.
Added 25 μl of CD73 to each well for a final concentration of […].
Incubated at RT for 15 min.
Added 25 μl of AMP to each well for a final concentration of 15 μM.
Incubated at RT for 10 min.
Added 10 μl of Malachite Green Reagent A, incubate at RT for 10 min.
Added 10 μl of Malachite Green Reagent B, incubate at RT for 45 min.
Read the Absorbance on Envision plate reader using excitation filter: Cy5 […].
The ability of the compounds disclosed herein to inhibit CD73 activity was quantified and the respective IC50 values were determined. Table 1 provides the biochemical IC50 values of compounds disclosed herein.

`O=P(O)(O)C[P@](=O)(OC[C@H]1O[C@@H](n2nnc3c(NCc4ccccc4Cl)nc(Cl)nc32)[C@H](O)[C@@H]1O)Oc1ccccc1` [Example 32, (((S)-(((2R,3S,4R,5R)-5-(5-chloro-7-((2-chlorobenzyl)amino)-3H-[1,2,3]triazolo[4,5-d]pyrimidin-3-yl)-3,4-dihydroxytetrahydrofuran-2-yl)methoxy)(phenoxy)phosphoryl)methyl) phosphonic acid] was tested, and the pIC50 was under 6.00.

Same assay, conditions: CD73 0.3208 nM, AMP 15 μM, Tris-HCl pH 7.4, Malachite Green, absorbance 620 nm; read-out: Biochemical IC50

`O=P(O)(O)CP(=O)(O)OC[C@@H]1C[C@@H](O)[C@H](n2ncc3c(NCc4ccccc4Cl)nc(Cl)nc32)O1` [Example 48, (((((2S,4R,5R)-5-(6-chloro-4-((2-chlorobenzyl)amino)-1H-pyrazolo[3,4-d]pyrimidin-1-yl)-4-hydroxytetrahydrofuran-2-yl)methoxy)(hydroxy)phosphoryl)methyl) phosphonic acid] and `C[C@@]1(O)[C@@H](COP(=O)(O)CP(=O)(O)O)O[C@@H](n2ncc3c(NCc4ccccc4Cl)nc(Cl)nc32)[C@@H]1O` [Example 40, (((((2R,3S,4R,5R)-5-(6-Chloro-4-((2-chlorobenzyl)amino)-1H-pyrazolo[3,4-d]pyrimidin-1-yl)-3,4-dihydroxy-3-methyltetrahydrofuran-2-yl)methoxy)(hydroxy)phosphoryl)methyl)phosphonic acid] cannot be ordered by pIC50: over 7.00 for the first, over 7.00 for the second.

First: O=P(O)(O)CP(=O)(OCC1CC1)OC[C@H]1O[C@@H](n2nnc3c(NCc4ccccc4Cl)nc(Cl)nc32)[C@H](O)[C@@H]1O (stereo partly drawn) [Example 30, (((((2R,3S,4R,5R)-5-(5-chloro-7-((2-chlorobenzyl)amino)-3H-[1,2,3]triazolo[4,5-d]pyrimidin-3-yl)-3,4-dihydroxytetrahydrofuran-2-yl)methoxy) (cyclopropylmethoxy)phosphoryl)methyl) phosphonic acid]
Second: CCOP(=O)(CP(=O)(O)O)OC[C@H]1O[C@@H](n2nnc3c(NCc4ccccc4Cl)nc(Cl)nc32)[C@H](O)[C@@H]1O (stereo partly drawn) [Example 25, (((((2R,3S,4R,5R)-5-(5-chloro-7-((2-chlorobenzyl)amino)-3H-[1,2,3]triazolo[4,5-d]pyrimidin-3-yl)-3,4-dihydroxytetrahydrofuran-2-yl)methoxy)(ethoxy)phosphoryl)methyl) phosphonic acid]
The pIC50 of the first is higher: over 7.00 for the first, 6.00 to 7.00 for the second. The first is the more potent here.

`CN(Cc1ccccc1Cl)c1nc(Cl)nc2c1nnn2[C@@H]1C[C@H](COP(=O)(O)CP(=O)(O)O)[C@@H](O)[C@H]1O` [Example 21, (((((1R,2R,3S,4R)-4-(5-chloro-7-((2-chlorobenzyl)(methyl)amino)-3H-[1,2,3]triazolo[4,5-d]pyrimidin-3-yl)-2,3-dihydroxycyclopentyl)methoxy)(hydroxy)phosphoryl)methyl)phosphonic acid] and `C[C@@H](c1ccccc1Cl)N(C)c1nc(Cl)nc2c1nnn2[C@@H]1O[C@H](COP(=O)(O)CP(=O)(O)O)[C@@H](O)[C@H]1O` [Example 12, (((((2R,3S,4R,5R)-5-(5-chloro-7-(((S)-1-(2-chlorophenyl)ethyl)(methyl)amino)-3H-[1,2,3]triazolo[4,5-d]pyrimidin-3-yl)-3,4-dihydroxytetrahydrofuran-2-yl)methoxy)(hydroxy)phosphoryl)methyl) phosphonic acid] cannot be ordered by pIC50: over 7.00 for the first, over 7.00 for the second.

First: CN(c1nc(Cl)nc2c1nnn2[C@@H]1O[C@H](COP(=O)(O)CP(=O)(O)O)[C@@H](O)[C@H]1O)[C@H]1CCc2ccccc21 [Example 18, (((((2R,3S,4R,5R)-5-(5-chloro-7-(((S)-2,3-dihydro-1H-inden-1-yl)(methyl)amino)-3H-[1,2,3]triazolo[4,5-d]pyrimidin-3-yl)-3,4-dihydroxytetrahydrofuran-2-yl)methoxy)(hydroxy)phosphoryl)methyl) phosphonic acid]
Second: COP(=O)(CP(=O)(O)O)OC[C@H]1O[C@@H](n2nnc3c(NCc4ccccc4Cl)nc(Cl)nc32)[C@H](O)[C@@H]1O (stereo partly drawn) [Example 26, (((((2R,3S,4R,5R)-5-(5-chloro-7-((2-chlorobenzyl)amino)-3H-[1,2,3]triazolo[4,5-d]pyrimidin-3-yl)-3,4-dihydroxytetrahydrofuran-2-yl)methoxy)(methoxy)phosphoryl)methyl) phosphonic acid]
The pIC50 of the first is higher: over 7.00 for the first, 6.00 to 7.00 for the second. The first is the more potent here.

With `CO[P@@](=O)(CP(=O)(O)O)OC[C@H]1O[C@@H](n2nnc3c(NCc4ccccc4Cl)nc(Cl)nc32)[C@H](O)[C@@H]1O` [Example 28, (((S)-(((2R,3S,4R,5R)-5-(5-chloro-7-((2-chlorobenzyl)amino)-3H-[1,2,3]triazolo[4,5-d]pyrimidin-3-yl)-3,4-dihydroxytetrahydrofuran-2-yl)methoxy)(methoxy)phosphoryl)methyl)phosphonic acid] the pIC50 was 6.00 to 7.00.

In the case of `O=P(O)(O)CP(=O)(O)OC[C@H]1CC(n2nnc3c(NC4CCc5ccccc54)nc(Cl)nc32)[C@H](O)[C@@H]1O` (stereo in doubt) [Example 35, (((((1R,2R,3S,4S)-4-(5-chloro-7-(((S)-2,3-dihydro-1H-inden-1-yl)amino)-3H-[1,2,3]triazolo[4,5-d]pyrimidin-3-yl)-2,3-dihydroxycyclopentyl)methoxy) (hydroxy)phosphoryl)methyl)phosphonic acid], the pIC50 was > 7.00 and 6.00 to 7.00.
